For data set [1], the system named is Spodoptera litura. The data set can be described thus: Insecticidal activity against Spodoptera litura assessed as mortality by filter paper method. The data set is classed as functional.
Data set [2] can be described thus: Acute toxicity in po dosed Mus musculus ddY (mouse). The data set is classed as organism-based. To be noted: in vivo, read-out: LC50 (the source's name).
The test system of data set [3] is Spodoptera litura. The data set can be described thus: Insecticidal activity against Spodoptera litura assessed as mortality at 50 ppm by filter paper method. Type of data set: functional.
Data set [4] has as its system Delphacodes. The data set can be described thus: Insecticidal activity against Delphacodes striatellus assessed as mortality at 10 ppm by test tube method. Type of data set: functional.
Data set [5] deals with Delphacodes. The data set can be described thus: Insecticidal activity against Delphacodes striatellus assessed as mortality at 50 ppm by test tube method. The data set is classed as functional.

Values after ≈ are worked out from the molar mass of the structure shown.

This is an account of results in ChEMBL document CHEMBL3046763 (J Pestic Sci, 2000).

The LC50 is the concentration lethal to half of the exposed cells or organisms. Broadly, the mortality is the share of the test organisms that died. For `CCOC(=O)CC(SP(=S)(OC)OC)C(=O)OCC` (stereo not given) [MALATHION], the LC50 in data set [1] worked out at 8.3 µg/mL (≈ 25.1 µM). In data set [2], the LD50 was 347 mg/kg. Moreover, the mortality at 50 ppm in data set [3] and in data set [5] was 100% each time. The mortality at 10 ppm in data set [4] worked out at 77%.
